These results are taken from patent publication US20250312499A1, “KISSPEPTIN RECEPTOR (KISS1R) TARGETED THERAPEUTICS AND USES THEREOF” (priority 2024, published 2025).

Numbered stars: 1 amine (or outer) side, 2 acyl side, 3 side chain; on linkers, the order of the positions; unused ones are H or OH. Square brackets hold non-standard residues; d marks the D form. Peptide text beside a SMILES is read from it. * marks the point of attachment. X8 = COCCOCCOCCOCCOCCOCCOCCOCCOCCOCCOCCOCCOCCOCCOCCOCCOCCOCCOCCOCCOCCOCCOCCOCCOCCC(=O)*; DOTA = O=C(O)CN1CCN(CC(=O)O)CCN(CC(=O)*)CCN(CC(=O)O)CC1; Ala(9-anthryl) = N[C@@H](Cc1c2ccccc2cc2ccccc12)C(=O)O; Gly(N-(3-F-4-Me-benzyl)) = Cc1ccc(CNCC(=O)*)cc1F; Propanoyl(3-(MeO(CH2CH2O)2)) = COCCOCCOCCC(=O)*; Bpa = N[C@@H](Cc1ccc(C(=O)c2ccccc2)cc1)C(=O)O; Api(1-amidino) = N=C(N)N1CCC(N)(C(=O)O)CC1; Hydrocinnamoyl(4-Me) = Cc1ccc(CCC(=O)*)cc1; Bip = N[C@@H](Cc1ccc(-c2ccccc2)cc1)C(=O)O; Hydrocinnamoyl(4-I) = O=C(CCc1ccc(I)cc1)*; X3 = CNC(=N)N1CCC(N[*:1])(C(=O)[*:2])CC1; Phe(4-I) = N[C@@H](Cc1ccc(I)cc1)C(=O)O; d2Nal = N[C@H](Cc1ccc2ccccc2c1)C(=O)O; Trx = NC[C@H]1CC[C@H](C(=O)O)CC1; 4Pal = N[C@@H](Cc1ccncc1)C(=O)O; d4Pal = N[C@H](Cc1ccncc1)C(=O)O; 4Amb = NCc1ccc(C(=O)O)cc1; Octanoyl = CCCCCCCC(=O)*; Api = NC1(C(=O)O)CCNCC1; PEG2 = NCCOCCOCCC(=O)O; Ahx = NCCCCCC(=O)O; azaGly = NNC(=O)O; Sar = CNCC(=O)O

Chain of human kisspeptin receptor (Q969F8 whole entry): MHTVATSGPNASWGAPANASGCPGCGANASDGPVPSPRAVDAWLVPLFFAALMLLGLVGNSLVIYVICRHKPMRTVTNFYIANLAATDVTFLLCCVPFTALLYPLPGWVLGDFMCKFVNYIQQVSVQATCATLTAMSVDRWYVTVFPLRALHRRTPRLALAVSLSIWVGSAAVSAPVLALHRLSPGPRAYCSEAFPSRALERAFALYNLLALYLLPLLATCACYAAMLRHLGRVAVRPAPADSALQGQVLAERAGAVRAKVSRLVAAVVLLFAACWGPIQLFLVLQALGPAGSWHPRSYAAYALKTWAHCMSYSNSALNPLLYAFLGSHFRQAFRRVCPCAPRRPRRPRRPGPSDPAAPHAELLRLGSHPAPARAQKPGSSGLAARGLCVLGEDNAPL

The experiment concerns the target human kisspeptin receptor (Homo sapiens (Human), UniProt Q969F8). Briefly: Human KISS1R binding assay (membrane competition binding). The conditions noted are these: 90 min at room temperature; competition with 0.2 nM [125I]-metastin (45-54); Flp-In T-Rex 293 kisspeptin membranes; metal complexes nonradioactive Ga, In, Lu; read-out: hKiSSR Binding Ki (90 min). In short, it runs like this: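 Membranes from tetracycline-induced (48 h) Flp-In T-Rex 293 cells expressing receptor, 5–10 μg, incubated 90 min at room temperature with 0.2 nM [125I]-metastin (45-54) and competitor (typically 0–10,000 nM) in Tris/Mg/Ca/EGTA/0.1% BSA, pH 7.4. Filtration, washing, counting; Ki by non-linear regression.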
Take `Cc1ccc(CNCC(=O)N2CCC(NC(=O)[C@H](CC(C)C)NC(=O)NNC(=O)[C@H](Cc3ccccc3)NC(=O)CCCCCNC(=O)[C@H](Cc3ccc(O)cc3)NC(=O)CNC(=O)c3ccc(CNC(=O)CN4CCN(CC(=O)O)CCN(CC(=O)O)CCN(CC(=O)O)CC4)cc3)(C(=O)N[C@@H](Cc3c[nH]c4ccccc34)C(N)=O)CC2)cc1F` [Compound 176] ({DOTA-4Amb}-GY[Ahx]F[azaGly]L[Api](Gly(N-(3-F-4-Me-benzyl)))W-NH2): the inhibitory constant (Ki) was less than 10 nM. For the compound `CCCCCCCC(=O)N[C@H](Cc1ccc(O)cc1)C(=O)N[C@@H](CCCCNC(=O)CN1CCN(CC(=O)O)CCN(CC(=O)O)CCN(CC(=O)O)CC1)C(=O)N[C@@H](CC(N)=O)C(=O)N[C@H](C(=O)N[C@@H](Cc1ccccc1)C(=O)NNC(=O)N[C@@H](CC(C)C)C(=O)NC1(C(=O)N[C@@H](Cc2c[nH]c3ccccc23)C(N)=O)CCN(C(=O)CNCc2ccc(C)c(F)c2)CC1)[C@@H](C)O` [Compound 181] (Octanoyl-[dY]K(DOTA)NTF[azaGly]L[Api](Gly(N-(3-F-4-Me-benzyl)))W-NH2), the Ki is less than 10 nM. For `COCCOCCOCCOCCOCCOCCOCCOCCOCCOCCOCCOCCOCCOCCOCCOCCOCCOCCOCCOCCOCCOCCOCCOCCOCCC(=O)N[C@H](Cc1ccc(O)cc1)C(=O)N[C@@H](CCCCNC(=O)CN1CCN(CC(=O)O)CCN(CC(=O)O)CCN(CC(=O)O)CC1)C(=O)N[C@@H](CC(N)=O)C(=O)N[C@H](C(=O)N[C@@H](Cc1ccccc1)C(=O)NNC(=O)N[C@@H](CC(C)C)C(=O)NC1(C(=O)N[C@@H](Cc2c[nH]c3ccccc23)C(N)=O)CCN(C(=N)N)CC1)[C@@H](C)O` [Compound 182] (X8-[dY]K(DOTA)NTF[azaGly]L[Api(1-amidino)]W-NH2) the value was less than 10 nM; for `CC(C)C[C@H](NC(=O)NNC(=O)[C@H](Cc1ccccc1)NC(=O)[C@@H](NC(=O)[C@H](CC(N)=O)NC(=O)[C@H](Cc1ccc(C(=O)c2ccccc2)cc1)NC(=O)[C@@H](Cc1ccc(O)cc1)NC(=O)CCCCCNC(=O)CN1CCN(CC(=O)O)CCN(CC(=O)O)CCN(CC(=O)O)CC1)[C@@H](C)O)C(=O)NC1(C(=O)N[C@@H](Cc2c[nH]c3ccccc23)C(N)=O)CCN(C(=N)N)CC1` [Compound 183] ({DOTA-Ahx}-[dY][Bpa]NTF[azaGly]L[Api(1-amidino)]W-NH2), less than 10 nM; for `CC(C)C[C@H](NC(=O)NNC(=O)[C@H](Cc1ccccc1)NC(=O)[C@@H](NC(=O)[C@H](CC(N)=O)NC(=O)[C@H](Cc1c2ccccc2cc2ccccc12)NC(=O)[C@@H](Cc1ccc(O)cc1)NC(=O)CCCCCNC(=O)CN1CCN(CC(=O)O)CCN(CC(=O)O)CCN(CC(=O)O)CC1)[C@@H](C)O)C(=O)NC1(C(=O)N[C@@H](Cc2c[nH]c3ccccc23)C(N)=O)CCN(C(=N)N)CC1` [Compound 184] ({DOTA-Ahx}-[dY][Ala(9-anthryl)]NTF[azaGly]L[Api(1-amidino)]W-NH2), less than 10 nM. Turning to `CC(C)C[C@H](NC(=O)NNC(=O)[C@H](Cc1ccccc1)NC(=O)[C@@H](NC(=O)[C@H](CC(N)=O)NC(=O)[C@@H](Cc1ccc2ccccc2c1)NC(=O)[C@@H](Cc1ccc(O)cc1)NC(=O)CCCCCNC(=O)CN1CCN(CC(=O)O)CCN(CC(=O)O)CCN(CC(=O)O)CC1)[C@@H](C)O)C(=O)NC1(C(=O)N[C@@H](Cc2ccc(O)cc2)C(N)=O)CCN(C(=N)N)CC1` [Compound 185] ({DOTA-Ahx}-[dY][d2Nal]NTF[azaGly]L[Api(1-amidino)]Y-NH2), the Ki was less than 10 nM. For `Cc1ccc(CNCC(=O)N2CCC(NC(=O)[C@H](CC(C)C)NC(=O)NNC(=O)[C@H](Cc3ccccc3)NC(=O)CCCCCNC(=O)[C@@H](Cc3ccncc3)NC(=O)[C@@H](Cc3ccc(O)cc3)NC(=O)CN3CCN(CC(=O)O)CCN(CC(=O)O)CCN(CC(=O)O)CC3)(C(=O)N[C@@H](Cc3c[nH]c4ccccc34)C(N)=O)CC2)cc1F` [Compound 186] ({DOTA}-[dY][d4Pal][Ahx]F[azaGly]L[Api](Gly(N-(3-F-4-Me-benzyl)))W-NH2) the value was less than 10 nM; for `CC(C)C[C@H](NC(=O)NNC(=O)[C@H](Cc1ccc(I)cc1)NC(=O)[C@@H](NC(=O)[C@H](CC(N)=O)NC(=O)[C@H](Cc1c2ccccc2cc2ccccc12)NC(=O)[C@@H](Cc1ccc(O)cc1)NC(=O)CN1CCN(CC(=O)O)CCN(CC(=O)O)CCN(CC(=O)O)CC1)[C@@H](C)O)C(=O)NC1(C(=O)N[C@@H](Cc2ccncc2)C(N)=O)CCN(C(=N)N)CC1` [Compound 188] ({DOTA}-[dY][Ala(9-anthryl)]NT[Phe(4-I)][azaGly]L[Api(1-amidino)][4Pal]-NH2), 10 to 100 nM; for `CNC(=N)N1CCC(NC(=O)[C@H](CC(C)C)NC(=O)NNC(=O)[C@H](Cc2ccccc2)NC(=O)CCCCCNC(=O)CN2CCN(CC(=O)O)CCN(CC(=O)O)CCN(CC(=O)O)CC2)(C(=O)N[C@@H](Cc2c[nH]c3ccccc23)C(N)=O)CC1` [Compound 189] ({DOTA-Ahx}-F[azaGly]L[X3]W-NH2), more than 100 nM. For the compound `Cc1ccc(CNCC(=O)N2CCC(NC(=O)[C@H](CC(C)C)NC(=O)NNC(=O)[C@H](Cc3ccccc3)NC(=O)[C@H]3CC[C@H](CNC(=O)CN4CCN(CC(=O)O)CCN(CC(=O)O)CCN(CC(=O)O)CC4)CC3)(C(=O)N[C@@H](Cc3c[nH]c4ccccc34)C(N)=O)CC2)cc1F` [Compound 192] ({DOTA-Trx}-F[azaGly]L[Api](Gly(N-(3-F-4-Me-benzyl)))W-NH2), the inhibition constant Ki is less than 10 nM. For `Cc1ccc(CNCC(=O)N2CCC(NC(=O)[C@H](CC(C)C)NC(=O)NNC(=O)[C@H](Cc3ccccc3)NC(=O)[C@@H](NC(=O)[C@H](CC(N)=O)NC(=O)[C@@H](Cc3ccncc3)NC(=O)[C@@H](Cc3ccc(O)cc3)NC(=O)CNC(=O)CN3CCN(CC(=O)O)CCN(CC(=O)O)CCN(CC(=O)O)CC3)[C@@H](C)O)(C(=O)N[C@@H](Cc3ccc(O)cc3)C(N)=O)CC2)cc1F` [Compound 193] ({DOTA}-G[dY][d4Pal]NTF[azaGly]L[Api](Gly(N-(3-F-4-Me-benzyl)))Y-NH2), the Ki is less than 10 nM. Turning to `Cc1ccc(CCC(=O)NCCOCCOCCC(=O)N[C@H](Cc2ccc(O)cc2)C(=O)N[C@@H](CCCCNC(=O)CN2CCN(CC(=O)O)CCN(CC(=O)O)CCN(CC(=O)O)CC2)C(=O)N[C@@H](CC(N)=O)C(=O)N[C@H](C(=O)N[C@@H](Cc2ccccc2)C(=O)NNC(=O)N[C@@H](CC(C)C)C(=O)NC2(C(=O)N[C@@H](Cc3c[nH]c4ccccc34)C(N)=O)CCN(C(=N)N)CC2)[C@@H](C)O)cc1` [Compound 195] ({Hydrocinnamoyl(4-Me)-PEG2}-[dY]K(DOTA)NTF[azaGly]L[Api(1-amidino)]W-NH2), the Ki was less than 10 nM. For `CC(C)C[C@H](NC(=O)NNC(=O)[C@H](Cc1ccccc1)NC(=O)[C@@H](NC(=O)[C@H](CC(N)=O)NC(=O)[C@H](CCCCNC(=O)CN1CCN(CC(=O)O)CCN(CC(=O)O)CCN(CC(=O)O)CC1)NC(=O)[C@@H](Cc1ccc(O)cc1)NC(=O)CCOCCOCCNC(=O)CCc1ccc(I)cc1)[C@@H](C)O)C(=O)NC1(C(=O)N[C@@H](Cc2c[nH]c3ccccc23)C(N)=O)CCN(C(=N)N)CC1` [Compound 196] ({Hydrocinnamoyl(4-I)-PEG2}-[dY]K(DOTA)NTF[azaGly]L[Api(1-amidino)]W-NH2) the value was less than 10 nM; for `COCCOCCOCCC(=O)N[C@H](Cc1ccc(O)cc1)C(=O)N[C@@H](CCCCNC(=O)CN1CCN(CC(=O)O)CCN(CC(=O)O)CCN(CC(=O)O)CC1)C(=O)N[C@@H](CC(N)=O)C(=O)N[C@H](C(=O)N[C@@H](Cc1ccccc1)C(=O)NNC(=O)N[C@@H](CC(C)C)C(=O)NC1(C(=O)N[C@@H](Cc2c[nH]c3ccccc23)C(N)=O)CCN(C(=N)N)CC1)[C@@H](C)O` [Compound 197] ({Propanoyl(3-(MeO(CH2CH2O)2))}-[dY]K(DOTA)NTF[azaGly]L[Api(1-amidino)]W-NH2), less than 10 nM.

As to `CC(C)C[C@H](NC(=O)NNC(=O)[C@H](Cc1ccccc1)NC(=O)[C@@H](NC(=O)[C@H](CC(N)=O)NC(=O)[C@H](Cc1ccc(-c2ccccc2)cc1)NC(=O)[C@@H](Cc1ccc(O)cc1)NC(=O)CCCCCNC(=O)CN1CCN(CC(=O)O)CCN(CC(=O)O)CCN(CC(=O)O)CC1)[C@@H](C)O)C(=O)NC1(C(=O)N[C@@H](Cc2c[nH]c3ccccc23)C(N)=O)CCN(C(=N)N)CC1` [Compound 198] ({DOTA-Ahx}-[dY][Bip]NTF[azaGly]L[Api(1-amidino)]W-NH2), the Ki was less than 10 nM. The figure for `CC(C)C[C@H](NC(=O)[C@H](Cc1ccccc1)NC(=O)[C@H](CC(N)=O)NC(=O)[C@H](CCCNC(=N)N)NC(=O)[C@H](CC(N)=O)NC(=O)[C@@H](NC(=O)CCCCCNC(=O)CN1CCN(CC(=O)O)CCN(CC(=O)O)CCN(CC(=O)O)CC1)[C@@H](C)O)C(=O)NC1(C(=O)N[C@@H](Cc2ccccc2)C(N)=O)CCN(C(=N)N)CC1` [Compound 199] ({DOTA-Ahx}-TNRNFL[Api(1-amidino)]F-NH2) is more than 100 nM; for `CNCC(=O)N1CCC(NC(=O)[C@H](CC(C)C)NC(=O)NNC(=O)[C@H](Cc2ccccc2)NC(=O)[C@@H](NC(=O)[C@H](CC(N)=O)NC(=O)[C@@H](Cc2ccc3ccccc3c2)NC(=O)[C@@H](Cc2ccc(O)cc2)NC(=O)CCCCCNC(=O)CN2CCN(CC(=O)O)CCN(CC(=O)O)CCN(CC(=O)O)CC2)[C@@H](C)O)(C(=O)N[C@@H](Cc2c[nH]c3ccccc23)C(N)=O)CC1` [Compound 201] ({DOTA-Ahx}-[dY][d2Nal]NTF[azaGly]L[Api](Sar)W-NH2) it is less than 10 nM. Regarding `CNCC(=O)N1CCC(NC(=O)[C@H](CC(C)C)NC(=O)NNC(=O)[C@H](Cc2ccccc2)NC(=O)[C@@H](NC(=O)[C@H](CC(N)=O)NC(=O)[C@H](Cc2c3ccccc3cc3ccccc23)NC(=O)[C@@H](Cc2ccc(O)cc2)NC(=O)CN2CCN(CC(=O)O)CCN(CC(=O)O)CCN(CC(=O)O)CC2)[C@@H](C)O)(C(=O)N[C@@H](Cc2ccncc2)C(N)=O)CC1` [Compound 202] ({DOTA}-[dY][Ala(9-anthryl)]NTF[azaGly]L[Api](Sar)[4Pal]-NH2), the Ki was 10 to 100 nM.

As usually defined, the Ki is a dissociation constant, usually derived from enzyme kinetics or from competition with a known ligand.
